Data from patent US3952108A, “Scopolamine derivatives for treating ulcers and spasms” (Istituto de Angeli S.p.A., priority 1972, dated 1976).

Assays:
[1] = tested on: gastric secretion in rats; test: Action on gastric secretion in rats after intraduodenal administration; format: in vivo, rat; conditions: 40 mg/Kg i.d., activity of scopolamine bromobutylate equal to 1
Excerpt: Action on gastric secretion in rats after intraduodenal administration according to Birnbaum G., Medicina Psicosomatica, 13, 1-4 (1968).
(§1) The above experiments have been carried out in comparison with scopolamine bromobutylate as a reference. The results are shown in the following table and are expressed on the basis of the activity of scopolamine bromobutylate being equal to 1.

[2] = tested on: Shay ulcer in rats; test: Action on Shay ulcer in rats by intraduodenal route; format: in vivo, rat; conditions: 100 mg/Kg i.d., activity of scopolamine bromobutylate equal to 1
Excerpt: Action on Shay ulcer in rats by intraduodenal route according to Shay H., Komarov S. A., Fels S. S., Meranze D., Gruenstein M. and Siplet H., Gastroenterology, 5, 43-61 (1945).
as §1

[3] = tested on: rabbit choledochoduodenal junction; test: Spasmolytic activity "in vivo" on rabbit choledochoduodenal junction stimulated by neostigmine; conditions: 10 mcg/Kg i.v.; neostigmine 60 mcg/Kg i.v.; activity of scopolamine bromobutylate equal to 1
Excerpt: Spasmolytic activity "in vivo" on rabbit choledochoduodenal junction stimulated by neostigmine (60 mcg/Kg i.v.), after i.v. administration of the compound under examination, according to Luoma P., Acta Pharmacol. e Toxicol., 29, suppl. 1, 5-55 (1971).
as §1

[4] = Overall evaluation of the spasmolytic and anti-ulcer tests; conditions: versus scopolamine bromobutylate
Excerpt: The properties of the new compounds may be illustrated by the results of the following experiments.
as §1

Question: Which “inhibition % of the gastric juice, relative to scopolamine bromobutylate = 1” value [1] does the source give for `C[N+]1(CC2CO2)[C@@H]2C[C@H](OC(=O)[C@H](CO)c3ccccc3)C[C@H]1[C@@H]1O[C@@H]12` (stereo partly drawn) [DA-3245, scopolamine-N-(2,3-epoxypropyl)-bromide] here?
Answer: 1.4

Question: What about the “% of animals protected from ulcer, relative to scopolamine bromobutylate = 1” value [2] of the same compound?
Answer: 1.5

Question: What about the “% increase of flux, relative to scopolamine bromobutylate = 1” value [3] of the same compound?
Answer: 0.4

Question: For `C[N+]1(CC2CCC2)[C@@H]2C[C@H](OC(=O)[C@H](CO)c3ccccc3)C[C@H]1[C@@H]1O[C@@H]12` (stereo partly drawn) [DA-3237, Scopolamine-N-(cyclobutyl-methyl)-bromide], which “inhibition % of the gastric juice, relative to scopolamine bromobutylate = 1” value [1] is on record?
Answer: 1.2

Question: And the “% of animals protected from ulcer, relative to scopolamine bromobutylate = 1” value [2]?
Answer: 2

Question: What about the “Activity compared with the reference compound, taking into account the relevant toxicities” value [4] of the same compound?
Answer: higher activities than the reference compound

Question: What about the “% increase of flux, relative to scopolamine bromobutylate = 1” value [3] of the same compound?
Answer: 1.2

Question: With `C[N+]1(CCC2CC2)[C@@H]2C[C@H](OC(=O)[C@H](CO)c3ccccc3)C[C@H]1[C@@H]1O[C@@H]12` (stereo partly drawn) [DA-3236, scopolamine-N-(cyclopropyl-ethyl)-bromide] as the compound, how does the “inhibition % of the gastric juice, relative to scopolamine bromobutylate = 1” value [1] read?
Answer: 1.1

Question: And the “% of animals protected from ulcer, relative to scopolamine bromobutylate = 1” value [2]?
Answer: 2

Question: What about the “% increase of flux, relative to scopolamine bromobutylate = 1” value [3] of the same compound?
Answer: 0.9

Question: Which results are given for `CC1CC1C[N+]1(C)[C@@H]2C[C@H](OC(=O)[C@H](CO)c3ccccc3)C[C@H]1[C@@H]1O[C@@H]12` (stereo partly drawn) [DA-3235, Scopolamine-N-(2-methyl-cyclopropyl-methyl)-bromide]?
Answer: inhibition % of the gastric juice, relative to scopolamine bromobutylate = 1 [1]: 0.8; % of animals protected from ulcer, relative to scopolamine bromobutylate = 1 [2]: 2; Activity compared with the reference compound, taking into account the relevant toxicities [4]: higher activities than the reference compound; % increase of flux, relative to scopolamine bromobutylate = 1 [3]: 0.8

Question: Which “inhibition % of the gastric juice, relative to scopolamine bromobutylate = 1” value [1] does the source give for `CCCC[N+]1(C)[C@@H]2C[C@@H](OC(=O)[C@H](CO)c3ccccc3)C[C@H]1[C@@H]1O[C@@H]12` (stereo partly drawn) [Scopolamine bromobutylate, scopolamine bromobutylate, reference compound] here?
Answer: 1

Question: And the “% of animals protected from ulcer, relative to scopolamine bromobutylate = 1” value [2]?
Answer: 1

Question: And the “% increase of flux, relative to scopolamine bromobutylate = 1” value [3]?
Answer: 1

Question: Which “inhibition % of the gastric juice, relative to scopolamine bromobutylate = 1” value [1] does the source give for `C[N+]1(CC2CC2)[C@@H]2C[C@H](OC(=O)[C@H](CO)c3ccccc3)C[C@H]1[C@@H]1O[C@@H]12` (stereo partly drawn) [DA-3177, scopolamine-N-(cyclopropyl-methyl)-bromide] here?
Answer: 1

Question: And the “% of animals protected from ulcer, relative to scopolamine bromobutylate = 1” value [2]?
Answer: 1.5

Question: What about the “Activity compared with the reference compound, taking into account the relevant toxicities” value [4] of the same compound?
Answer: higher activities than the reference compound

Question: And the “% increase of flux, relative to scopolamine bromobutylate = 1” value [3]?
Answer: 0.9
